Assay results reported in patent US20060193844A1, “Methods for enzyme inhibition” (Proteolix, Inc., priority 2005, published 2006).

How the values were obtained:
[1] = female rats; daily administration of doses that result in 80% inhibition of the proteasome; cited from earlier work
[2] = twice weekly for two weeks (days 1, 4, 8 and 11) followed by a ten-day rest period; cited from earlier work
HT-29 cell line = assay: Human xenograft model, tumor volume; assay type: in vivo; conditions: dose equivalent to the MTD for this strain of mouse, clinical schedule; FIG. 4
Method: In a human xenograft model using an HT-29 cell line, proteasome inhibitors were administered using the indicated regimens.

[3] = monkeys, cited from earlier work

CC(C)C[C@H](NC(=O)[C@H](Cc1ccccc1)NC(=O)c1cnccn1)B(O)O [bortezomib]
lethality [1]: 67% | maximum tolerated dose (MTD) [2]: 1.3 mg/m^2/dose | anti-tumor response (HT-29 cell line): unable to induce an anti-tumor response | highest daily dose without severe toxicity, fold less than the MTD on the clinical dosing schedule [3]: 20 fold | highest dose without severe toxicity ([3]; daily administered): 0.5 mg/m^2
